Tests used:
Histone deacetylase [1] = experiment: Inhibition of HDAC from human K562 cells; assay type: cell-based
HT-1080 = experiment: Inhibition of human HT1080 cells; assay type: functional, cell-based
Histone deacetylase [2] = experiment: Inhibition of HDAC from human HeLa cells; assay type: cell-based
MKN-45 = experiment: Antiproliferative activity against human MKN45 cells; assay type: functional, cell-based
HCT-116 = experiment: Inhibition of human HCT116 cells; assay type: functional, cell-based

`O=C(CCCCCCc1cnc(-c2ccc(F)cc2)o1)NO` showed an IC50 (Histone deacetylase [1]) of 23 nM.

In the case of `COC(=O)C(=O)CCCCCOc1ccc(-c2ccccc2)cc1`, the IC50 (Histone deacetylase [1]) is reported as 82 nM.

`O=C(CCCCCCc1nc(-c2ccc(-c3ccccc3)cc2)cs1)NO` showed an IC50 (Histone deacetylase [1]) of 11 nM and an IC50 (HT-1080) of 1320 nM.

`O=C(CCCCS)Nc1ccccc1` showed an IC50 (Histone deacetylase [2]; read-out: IC50) of 6200 nM.

With `O=C(O)C(=O)CCCCCCOc1ccc(-c2ccccc2)cc1` the IC50 (Histone deacetylase [1]) was 3700 nM.

Work on `O=C(NO)c1ccc(-c2ccncc2)s1` yielded an IC50 (Histone deacetylase [2]) of 1260 nM.

`COc1ccc(-c2nc3cc(Cl)ccc3o2)cc1NC(=O)NCCCCCC(=O)NO` gave an IC50 (Histone deacetylase [2]; read-out: IC50) of 146 nM.

`O=C(CCCCCCc1nc(-c2ccc(Br)cc2)cs1)NO` showed an IC50 (Histone deacetylase [1]) of 8.5 nM and an IC50 (HT-1080) of 5680 nM.

Work on `O=C(NO)c1ccc(-c2ccccn2)s1` yielded an IC50 (Histone deacetylase [2]) of 243 nM.

`O=C(CCCCCCc1cnc(-c2ccccc2)o1)NO` gave an IC50 (Histone deacetylase [1]) of 13 nM.

In the case of `COc1ccc(-c2nc3ccc(F)cc3o2)cc1NC(=O)NCCCCCC(=O)NO`, the IC50 (Histone deacetylase [2]; read-out: IC50) is reported as 18 nM.

Work on `O=C(CCCCCCc1ncc(-c2ccc(Br)cc2)o1)NO` yielded an IC50 (Histone deacetylase [1]) of 2.7 nM and an IC50 (HT-1080) of 7700 nM.

For `O=C(CCCCCNC(=O)Nc1cccc(-c2nc3cc(C(F)(F)F)ccc3o2)c1)NO`, the IC50 (Histone deacetylase [2]; read-out: IC50) was 19 nM.

For `COc1ccc(CNCCn2ccc(-c3ccc(C(=O)NO)s3)n2)cc1OC`, the IC50 (MKN-45) was 4500 nM.

In the case of `CC(C)[C@H]1NC(=O)[C@@H](C)[C@@H](C/C=C\CCC(N)=O)NC(=O)[C@@H](Cc2ccccc2)NC(=O)[C@@H](C)NC1=O` [AZUMAMIDE A], the IC50 (Histone deacetylase [1]) is reported as 45 nM.

For `Cc1ccc(NS(=O)(=O)c2cccc(/C=C/C(=O)NO)c2)cc1`, the IC50 (Histone deacetylase [2]; read-out: IC50) was 18 nM.

For `COc1ccc(CNc2ccc(/C=C/C(=O)Nc3ccccc3N)cn2)cc1`, the IC50 (HCT-116) was 3000 nM.

`O=C(/C=C/c1cccc(S(=O)(=O)Nc2ccc(-c3ccccc3)cc2)c1)NO` was tested, and the IC50 (Histone deacetylase [2]; read-out: IC50) was 54 nM.

Compound `CN(C)CCNC(=O)C(=O)CCCCCCOc1ccc(-c2ccccc2)cc1` has an IC50 (Histone deacetylase [1]) of over 50000 nM.

`COc1ccc(CNc2ccc(C(=O)Nc3ccccc3N)cc2)cc1OC` was tested, and the IC50 (HCT-116) was 600 nM.

In the case of `O=C(NO)c1ccc(-c2ccn(CCNCc3ccc(-n4ccnc4)cc3)n2)s1`, the IC50 (MKN-45) is reported as 560 nM.

`COc1ccc(-c2nc3cc(F)ccc3o2)cc1NC(=O)NCCCCCC(=O)NO` was tested, and the IC50 (Histone deacetylase [2]; read-out: IC50) was 15 nM.

Work on `COc1ccc(-c2nc3cc(Cl)cc(Cl)c3o2)cc1NC(=O)NCCCCCC(=O)NO` yielded an IC50 (Histone deacetylase [2]; read-out: IC50) of 128 nM.

`O=C(/C=C/c1ccc(S(=O)(=O)Nc2ccccc2)cc1)NO` was tested, and the IC50 (Histone deacetylase [2]; read-out: IC50) was 29 nM.

For `O=C(/C=C/c1cccc(NS(=O)(=O)c2ccc(-c3ccccc3)cc2)c1)NO`, the IC50 (Histone deacetylase [2]; read-out: IC50) was 106 nM.

`Nc1ccccc1NC(=O)CCCCCCNC(=O)c1cccc(-c2ccccc2)c1` showed an IC50 (HCT-116) of 12000 nM.

`O=C(CCCCCNC(=O)Nc1cccc(-c2nc3cc(F)ccc3o2)c1)NO` was tested, and the IC50 (Histone deacetylase [2]; read-out: IC50) was 8 nM.

`COc1cc(CNc2ccc(/C=C/C(=O)Nc3ccccc3N)cn2)cc(OC)c1OC` showed an IC50 (HCT-116) of 2000 nM.

Compound `C[C@@H]1C(=O)N[C@H](C)C(=O)N[C@H](C)C(=O)N[C@H](Cc2ccccc2)C(=O)N[C@@H]1C/C=C\CCC(N)=O` [AZUMAMIDE D] has an IC50 (Histone deacetylase [1]) of 1300 nM.

`O=C(NO)c1ccc(-c2ccn(CCOCc3ccccc3)n2)s1` gave an IC50 (MKN-45) of 750 nM.

In the case of `O=C(NO)c1ccc(-c2ccn(Cc3ccccc3)n2)s1`, the IC50 (MKN-45) is reported as 4540 nM.

For `COc1ccccc1NC(=O)Cn1ccc(-c2ccc(C(=O)NO)s2)n1`, the IC50 (MKN-45) was 230 nM.

`O=C(CCCCCNC(=O)Nc1cccc(-c2nc3ccc(F)cc3o2)c1)NO` was tested, and the IC50 (Histone deacetylase [2]; read-out: IC50) was 9 nM.

In the case of `Nc1ccccc1NC(=O)c1ccc(CSc2nc3ccccc3[nH]2)cc1`, the IC50 (HCT-116) is reported as 320 nM.

In the case of `Nc1ccccc1NC(=O)c1ccc(/C=C/CNc2nccc(-c3cccnc3)n2)cc1`, the IC50 (HCT-116) is reported as 200 nM.

In the case of `COc1ccc2oc(-c3cccc(NC(=O)NCCCCCC(=O)NO)c3)nc2c1`, the IC50 (Histone deacetylase [2]; read-out: IC50) is reported as 12 nM.

In the case of `CCNC(=O)C(=O)CCCCCCOc1ccc(-c2ccccc2)cc1`, the IC50 (Histone deacetylase [1]) is reported as 4900 nM.

`O=C(/C=C/c1ccc(NS(=O)(=O)c2ccc(-c3ccccc3)cc2)cc1)NO` showed an IC50 (Histone deacetylase [2]; read-out: IC50) of 30 nM.

`COc1ccc(CNc2ccc(C(=O)Nc3ccccc3N)cn2)cc1` was tested, and the IC50 (HCT-116) was 500 nM.

In the case of `COc1ccc(CCNc2ccc(C(=O)Nc3ccccc3N)cn2)cc1`, the IC50 (HCT-116) is reported as 800 nM.

Work on `O=C(/C=C/c1ccc(S(=O)(=O)Nc2ccc(-c3ccccc3)cc2)cc1)NO` yielded an IC50 (Histone deacetylase [2]; read-out: IC50) of 66 nM.

`NC(=O)C(=O)CCCCCCOc1ccc(-c2ccccc2)cc1` gave an IC50 (Histone deacetylase [1]) of over 50000 nM.

`C1=C\CCCCCC[n+]2cccc(c2)CCCCCCCCCCCC[n+]2cccc(c2)CCCCCC/1` was tested, and the IC50 (Histone deacetylase [1]) was 27000 nM.

`O=C(/C=C/c1cccc(NS(=O)(=O)c2ccccc2)c1)NO` gave an IC50 (Histone deacetylase [2]; read-out: IC50) of 188 nM.

For `COc1cc(NCc2ccc(/C=C/C(=O)Nc3ccccc3N)cn2)cc(OC)c1OC`, the IC50 (HCT-116) was 3000 nM.

Compound `Cn1c(CNCCn2ccc(-c3ccc(C(=O)NO)s3)n2)cc2ccccc21` has an IC50 (MKN-45) of 370 nM.

In the case of `O=C(NO)c1ccc(-c2ccn(CCOc3ccccc3)n2)s1`, the IC50 (MKN-45) is reported as 1500 nM.

Work on `COc1ccc(CNCCn2ccc(-c3ccc(C(=O)NO)s3)n2)cc1` yielded an IC50 (MKN-45) of 550 nM.

For `Nc1ccccc1NC(=O)/C=C/c1ccc(NCc2ccccc2)nc1`, the IC50 (HCT-116) was 1000 nM.

Work on `O=C(NO)c1ccc(-c2ccn(CCNCc3ccc4[nH]ccc4c3)n2)s1` yielded an IC50 (MKN-45) of 280 nM.

With `COC(=O)C(=O)CCCCCCOc1ccc(-c2ccccc2)cc1` the IC50 (Histone deacetylase [1]) was 62 nM.

`O=C(CCCCCNC(=O)Nc1cccc(-c2nc3ccccc3o2)c1)NO` was tested, and the IC50 (Histone deacetylase [2]; read-out: IC50) was 8 nM.

`COc1ccc(NS(=O)(=O)c2cccc(/C=C/C(=O)NO)c2)cc1OC` showed an IC50 (Histone deacetylase [2]; read-out: IC50) of 23 nM.

`CN(C)C(=O)C(=O)CCCCCCOc1ccc(-c2ccccc2)cc1` was tested, and the IC50 (Histone deacetylase [1]) was over 5000 nM.

`O=C(/C=C/c1cccc(S(=O)(=O)NCc2ccccc2)c1)NO` was tested, and the IC50 (Histone deacetylase [2]; read-out: IC50) was 34 nM.

`O=C(Cn1ccc(-c2ccc(C(=O)NO)s2)n1)Nc1ccccc1` gave an IC50 (MKN-45) of 840 nM.

`COc1ccc(-c2nc3cc(-c4ccccc4)ccc3o2)cc1NC(=O)NCCCCCC(=O)NO` gave an IC50 (Histone deacetylase [2]; read-out: IC50) of 400 nM.

`COc1cc(NC/C=C/c2ccc(C(=O)Nc3ccccc3N)cc2)cc(OC)c1OC` was tested, and the IC50 (HCT-116) was 100 nM.

In the case of `COc1ccc(-c2nc3ccccc3o2)cc1NC(=O)NCCCCCC(=O)NO`, the IC50 (Histone deacetylase [2]; read-out: IC50) is reported as 12 nM.

`O=C(NO)c1ccc(-c2ccn(CCc3ccccc3)n2)s1` showed an IC50 (MKN-45) of 2910 nM.

In the case of `Nc1ccccc1NC(=O)c1ccc(/C=C/C(=O)NCCc2c[nH]c3ccccc23)cc1`, the IC50 (HCT-116) is reported as 300 nM.

`Cn1nc(C(F)(F)F)cc1-c1ccc(C(=O)NO)s1` was tested, and the IC50 (MKN-45) was 31500 nM.

`O=C(NO)c1ccc(-c2ccn(CCCc3ccccc3)n2)s1` was tested, and the IC50 (MKN-45) was 2190 nM.

With `O=C(NO)c1ccc(-c2ccn(CCNCc3ccc(-c4ccccn4)cc3)n2)s1` the IC50 (MKN-45) was 120 nM.

In the case of `O=C(Cn1ccc(-c2ccc(C(=O)NO)s2)n1)Nc1cccc2cccnc12`, the IC50 (MKN-45) is reported as 200 nM.

Work on `Nc1ccccc1NC(=O)CCCCCCNC(=O)c1ccc(-c2ccccc2)cc1` yielded an IC50 (HCT-116) of 7000 nM.

For `COc1ccc(S(=O)(=O)Nc2cccc(/C=C/C(=O)NO)c2)cc1OC`, the IC50 (Histone deacetylase [2]; read-out: IC50) was 137 nM.

Work on `O=C(NO)c1ccc(-c2cccnc2)s1` yielded an IC50 (Histone deacetylase [2]) of 1130 nM.

Work on `CN(c1ccccc1)S(=O)(=O)c1cccc(/C=C/C(=O)NO)c1` yielded an IC50 (Histone deacetylase [2]; read-out: IC50) of 476 nM.

`O=C(O)CNC(=O)C(=O)CCCCCCOc1ccc(-c2ccccc2)cc1` gave an IC50 (Histone deacetylase [1]) of over 50000 nM.

With `COc1ccc(NCc2ccc(/C=C/C(=O)Nc3ccccc3N)cc2)cc1` the IC50 (HCT-116) was 12000 nM.

With `CC(=O)SCCCCCCC(=O)Nc1ccccc1` the IC50 (Histone deacetylase [2]; read-out: IC50) was 7100 nM.

`O=C(CCCCCCc1nc(-c2ccc(OC(F)(F)F)cc2)cs1)NO` gave an IC50 (Histone deacetylase [1]) of 74 nM.

Compound `CSCCCCCCC(=O)Nc1ccccc1` has an IC50 (Histone deacetylase [2]) of over 100000 nM.

Work on `Cc1ccc(S(=O)(=O)Nc2cccc(/C=C/C(=O)NO)c2)cc1` yielded an IC50 (Histone deacetylase [2]; read-out: IC50) of 123 nM.

Compound `Nc1ccccc1NC(=O)c1ccc(/C=C/C(=O)NCc2cccnc2)cc1` has an IC50 (HCT-116) of 70 nM.

Compound `O=C(NO)c1ccc(-c2ccn(CCNCc3ccccc3)n2)s1` has an IC50 (MKN-45) of 1800 nM.

For `COC(=O)C(=O)CCCCCCCOc1ccc(-c2ccccc2)cc1`, the IC50 (Histone deacetylase [1]) was 109 nM.

`COc1ccc(CNc2ccc(/C=C/C(=O)Nc3ccccc3N)cc2)cc1` was tested, and the IC50 (HCT-116) was 37000 nM.

— ChEMBL document CHEMBL1142268, “Histone deacetylase inhibitors: from bench to clinic” (J Med Chem, 2008)
